Measured values: publication PMC9120017, “Inhibition mechanism of the chloride channel TMEM16A by the pore blocker 1PBC” (Nature Communications, 2022)
Like-named read-outs stand apart in the source and are kept apart here.

Molecular target: T1, mouse TMEM16A mutant I512A (Mus musculus, UniProt Q8BHY3, I512A)
T1 construct: expressed in transfected cells; host or cells: HEK293T
T1 sequence (Q8BHY3 1-960 I512A): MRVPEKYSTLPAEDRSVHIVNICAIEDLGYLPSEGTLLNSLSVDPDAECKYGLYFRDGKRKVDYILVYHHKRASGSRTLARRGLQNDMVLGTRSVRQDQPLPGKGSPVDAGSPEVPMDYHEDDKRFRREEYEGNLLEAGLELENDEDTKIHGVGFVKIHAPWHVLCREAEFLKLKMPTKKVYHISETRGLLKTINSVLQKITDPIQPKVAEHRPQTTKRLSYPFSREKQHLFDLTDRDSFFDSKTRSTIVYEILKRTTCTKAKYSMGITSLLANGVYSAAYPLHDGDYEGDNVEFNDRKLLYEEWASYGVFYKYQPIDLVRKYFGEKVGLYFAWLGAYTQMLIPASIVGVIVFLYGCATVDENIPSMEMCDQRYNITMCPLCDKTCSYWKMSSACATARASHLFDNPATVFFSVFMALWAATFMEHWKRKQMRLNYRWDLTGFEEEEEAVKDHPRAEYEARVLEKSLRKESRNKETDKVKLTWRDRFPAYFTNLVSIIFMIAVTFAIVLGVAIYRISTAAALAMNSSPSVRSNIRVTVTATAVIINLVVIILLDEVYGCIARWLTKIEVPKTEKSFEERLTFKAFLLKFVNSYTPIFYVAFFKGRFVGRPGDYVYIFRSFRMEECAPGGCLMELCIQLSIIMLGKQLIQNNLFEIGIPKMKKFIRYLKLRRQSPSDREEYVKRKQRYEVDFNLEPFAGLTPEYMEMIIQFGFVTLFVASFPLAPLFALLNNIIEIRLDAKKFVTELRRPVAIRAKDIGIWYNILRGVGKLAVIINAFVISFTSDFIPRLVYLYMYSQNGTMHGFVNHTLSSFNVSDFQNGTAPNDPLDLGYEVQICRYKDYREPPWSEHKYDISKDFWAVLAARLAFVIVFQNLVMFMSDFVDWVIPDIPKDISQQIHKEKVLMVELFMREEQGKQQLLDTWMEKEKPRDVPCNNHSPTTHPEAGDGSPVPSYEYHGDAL
Assay: Inside-out patch recording of 1PBC block, mutant I512A
Format: cell-based
Settings: for remaining activity at 100 µM: 100 µM 1PBC
Description: HEK293T cells (ATCC CRL-1573) were maintained in Dulbecco’s modified Eagle’s medium (DMEM; Sigma-Aldrich) supplemented with 10 U ml^−1 penicillin, 0.1 mg ml^−1 streptomycin (Sigma-Aldrich), 2 mM L-glutamine (Sigma-Aldrich), and 10% FBS (Sigma-Aldrich) in a humidified atmosphere containing 5% CO2 at 37 °C. HEK293S GnTI^− cells (ATCC CRL-3022) were maintained in HyClone HyCell TransFx-H medium (GE Healthcare) supplemented with 10 U ml^−1 penicillin, 0.1 mg ml^−1 streptomycin, 4 mM L-glutamine, 0.15% poloxamer 188 (Sigma-Aldrich), and 1% FBS in an atmosphere containing 5% CO2 at 185 rpm at 37 °C. The ac splice variant of mouse TMEM16A (UniProt ID: Q8BHY3), mouse TMEM16B (UniProt ID: Q8CFW1), or mouse TMEM16F (UniProt ID: Q6P9J9) bearing a 3C cleavage site, a Venus YFP, a Myc tag, and a Streptavidin-binding peptide (SBP) downstream of the open reading frame in a modified pcDNA3.1 vector (Invitrogen) were used as described previously[21],[31]. Mutations were introduced using a modified QuikChange method[58] and were verified by sequencing.
HEK293T cells were transfected with 3–4 μg DNA per 6 cm Petri dish using the calcium phosphate co-precipitation method and were used within 24–96 h after transfection. Recordings were performed on inside-out patches excised from HEK293T cells expressing the construct of interest. Patch pipettes were pulled from borosilicate glass capillaries (O.D. 1.5 mm, I.D. 0.86 mm, Sutter Instrument) and were fire-polished with a microforge (Narishige) before use. Pipette resistance was typically 3–8 MΩ when filled with the recording solutions detailed below. Seal resistance was typically 4 GΩ or higher. Voltage-clamp recordings were made using Axopatch 200B, Digidata 1550, and Clampex 10.7 (Molecular Devices). Analog signals were filtered with the in-built 4-pole Bessel filter at 10 kHz and were digitized at 20 kHz. Solution exchange was achieved using a gravity-fed system through a theta glass pipette mounted on an ultra-fast piezo-driven stepper (Siskiyou). […] All recordings were performed at 20 °C.
A symmetrical ionic condition was used throughout. Stock solution with Ca^2+-EGTA contained 150 mM NaCl, 5.99 mM Ca(OH)2, 5 mM EGTA, and 10 mM HEPES at pH 7.40. Stock solution with EGTA contained 150 mM NaCl, 5 mM EGTA, and 10 mM HEPES at pH 7.40. Free Ca^2+ concentrations were adjusted by mixing the stock solutions at the required ratios calculated using the WEBMAXC program (http://web.stanford.edu/~cpatton/webmaxcS.htm). Patch pipettes were filled with the stock solution with Ca^2+-EGTA, which has a free Ca^2+ concentration of 1 mM. 1PBC (ChemBridge) stock was reconstituted in anhydrous DMSO (Sigma-Aldrich) at 100 mM and stored at −20 °C. Working solutions with 1PBC were prepared by serial dilution. Unless otherwise stated, experiments were performed at a saturating Ca^2+ concentration as shown in Supplementary Table 1 and the primary data were corrected for current rundown as described previously[21],[25].
Concentration-response relations, obtained from the ratio of the I-V plots before and after the application of the blocker, were fitted to the Hill equation,1 I/Imax=1/1+IC50/[blocker]^h where I/Imax is the normalized current responses, IC50 defines the concentration at which inhibition is at its half-maximum, and h is the Hill coefficient.

N#Cc1c(C(F)(F)F)cc(O)n2c1nc1ccccc12 [1PBC]
IC50 (0 mV, 2 µM Ca2+): 30.7 µM
remaining activity at 3 µM (3 µM 1PBC, +80 mV, saturating Ca2+ (2 µM), read-out: I/Imax): 84.4%
remaining activity at 3 µM (3 µM 1PBC, -80 mV, saturating Ca2+ (2 µM), read-out: I/Imax): 94.5%
remaining activity at 10 µM (10 µM 1PBC, +80 mV, saturating Ca2+ (2 µM), read-out: I/Imax): 63.3%
remaining activity at 10 µM (10 µM 1PBC, -80 mV, saturating Ca2+ (2 µM), read-out: I/Imax): 87.2%
remaining activity at 30 µM (30 µM 1PBC, +80 mV, saturating Ca2+ (2 µM), read-out: I/Imax): 36.4%
remaining activity at 30 µM (30 µM 1PBC, -80 mV, saturating Ca2+ (2 µM), read-out: I/Imax): 65.6%
remaining activity at 100 µM (+80 mV, saturating Ca2+ (2 µM), read-out: I/Imax): 14%
remaining activity at 100 µM (-80 mV, saturating Ca2+ (2 µM), read-out: I/Imax): 36%
remaining activity at 3 µM (1PBC 3, 0 mV, read-out: fraction of unblocked current): 89.8%
remaining activity at 3 µM (1PBC 3, 20 mV, read-out: fraction of unblocked current): 88.3%
remaining activity at 3 µM (1PBC 3, 40 mV, read-out: fraction of unblocked current): 86.4%
remaining activity at 3 µM (1PBC 3, 60 mV, read-out: fraction of unblocked current): 85.9%
remaining activity at 3 µM (1PBC 3, 80 mV, read-out: fraction of unblocked current): 84.4%
remaining activity at 3 µM (1PBC 3, 100 mV, read-out: fraction of unblocked current): 83.9%
remaining activity at 3 µM (1PBC 3, 120 mV, read-out: fraction of unblocked current): 84.8%
remaining activity at 3 µM (1PBC 3, 140 mV, read-out: fraction of unblocked current): 86.4%
remaining activity at 3 µM (1PBC 3, -20 mV, read-out: fraction of unblocked current): 91.3%
remaining activity at 3 µM (1PBC 3, -40 mV, read-out: fraction of unblocked current): 92.6%
remaining activity at 3 µM (1PBC 3, -60 mV, read-out: fraction of unblocked current): 93.3%
remaining activity at 3 µM (1PBC 3, -80 mV, read-out: fraction of unblocked current): 94.5%
remaining activity at 3 µM (1PBC 3, -100 mV, read-out: fraction of unblocked current): 94.8%
remaining activity at 3 µM (1PBC 3, -120 mV, read-out: fraction of unblocked current): 95.1%
remaining activity at 3 µM (1PBC 3, -140 mV, read-out: fraction of unblocked current): 96%
remaining activity at 10 µM (1PBC 10, 0 mV, read-out: fraction of unblocked current): 76.6%
remaining activity at 10 µM (1PBC 10, 20 mV, read-out: fraction of unblocked current): 72.7%
remaining activity at 10 µM (1PBC 10, 40 mV, read-out: fraction of unblocked current): 68.9%
remaining activity at 10 µM (1PBC 10, 60 mV, read-out: fraction of unblocked current): 65.9%
remaining activity at 10 µM (1PBC 10, 80 mV, read-out: fraction of unblocked current): 63.3%
remaining activity at 10 µM (1PBC 10, 100 mV, read-out: fraction of unblocked current): 61.7%
remaining activity at 10 µM (1PBC 10, 120 mV, read-out: fraction of unblocked current): 61.7%
remaining activity at 10 µM (1PBC 10, 140 mV, read-out: fraction of unblocked current): 63.1%
remaining activity at 10 µM (1PBC 10, -20 mV, read-out: fraction of unblocked current): 80.4%
remaining activity at 10 µM (1PBC 10, -40 mV, read-out: fraction of unblocked current): 82.9%
remaining activity at 10 µM (1PBC 10, -60 mV, read-out: fraction of unblocked current): 85.2%
remaining activity at 10 µM (1PBC 10, -80 mV, read-out: fraction of unblocked current): 87.2%
remaining activity at 10 µM (1PBC 10, -100 mV, read-out: fraction of unblocked current): 88.6%
remaining activity at 10 µM (1PBC 10, -120 mV, read-out: fraction of unblocked current): 89%
remaining activity at 10 µM (1PBC 10, -140 mV, read-out: fraction of unblocked current): 89.6%
remaining activity at 30 µM (1PBC 30, 0 mV, read-out: fraction of unblocked current): 50.3%
remaining activity at 30 µM (1PBC 30, 20 mV, read-out: fraction of unblocked current): 46.3%
remaining activity at 30 µM (1PBC 30, 40 mV, read-out: fraction of unblocked current): 42.2%
remaining activity at 30 µM (1PBC 30, 60 mV, read-out: fraction of unblocked current): 39%
remaining activity at 30 µM (1PBC 30, 80 mV, read-out: fraction of unblocked current): 36.4%
remaining activity at 30 µM (1PBC 30, 100 mV, read-out: fraction of unblocked current): 34.7%
remaining activity at 30 µM (1PBC 30, 120 mV, read-out: fraction of unblocked current): 34.2%
remaining activity at 30 µM (1PBC 30, 140 mV, read-out: fraction of unblocked current): 35.1%
remaining activity at 30 µM (1PBC 30, -20 mV, read-out: fraction of unblocked current): 54.2%
remaining activity at 30 µM (1PBC 30, -40 mV, read-out: fraction of unblocked current): 58.4%
